Measurements: patent publication US8592432B2, “Compounds and compositions as protein kinase inhibitors” (priority 2008, dated 2013)

Biological target: ALK (Homo sapiens (Human), UniProt Q9UM73)
Test: ALK IC50 (Tables 1-4)
Type: biochemical
Procedure: Assays are incubated for 10 min at ambient temperature. […] Following washing (0.5% H3PO4), plates are counted in a liquid scintillation counter. IC50 values are calculated by linear regression analysis of the percentage inhibition.
Compounds of the present invention may be assessed for their ability to inhibit ALK using assays described below, as well as other assays known in the art.

Sequence of ALK (Q9UM73 1116-1392): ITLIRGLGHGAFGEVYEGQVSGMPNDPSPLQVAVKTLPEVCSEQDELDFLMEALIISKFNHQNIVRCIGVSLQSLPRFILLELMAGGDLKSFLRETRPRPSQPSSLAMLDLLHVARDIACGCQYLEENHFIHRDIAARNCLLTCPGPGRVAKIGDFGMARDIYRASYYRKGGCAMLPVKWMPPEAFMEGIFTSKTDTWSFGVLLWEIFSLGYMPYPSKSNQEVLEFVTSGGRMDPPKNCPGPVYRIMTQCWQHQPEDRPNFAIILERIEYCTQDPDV

Question: For `Cc1cc(Nc2nc(Nc3ccccc3S(=O)(=O)C(C)C)c3c(C)n[nH]c3n2)c(OC(C)C)cc1C1CCN(C)CC1` [Compound 34, N6-(2-isopropoxy-5-methyl-4-(1-methylpiperidin-4-yl)phenyl)-N4-(2-(isoproplsulfonyl)phenyl)-3-methyl-1H-pyrazolo[3,4-d]pyrimidine-4,6-diamine], which IC50 is on record?
Answer: 20 nM
